Activity calls are given as the source filed them.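 How the source made its calls: active means maximal inhibition of the USP30 enzyme reaching 30% or more across the dose series; inactive means the rest.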
Target: Ubiquitin carboxyl-terminal hydrolase 30 (Homo sapiens) (UniProt Q70CQ3)
Test: ubiquitin-specific protease 30 DUB inhibitors, concentration-effect, biochemical, validation of primary actives (AID 1645865)
Conditions: purified USP30, Ub-rhodamine cleavage, fluorescence, 2 h

Chain of Ubiquitin carboxyl-terminal hydrolase 30 (Homo sapiens) (Q70CQ3 whole entry, looked up): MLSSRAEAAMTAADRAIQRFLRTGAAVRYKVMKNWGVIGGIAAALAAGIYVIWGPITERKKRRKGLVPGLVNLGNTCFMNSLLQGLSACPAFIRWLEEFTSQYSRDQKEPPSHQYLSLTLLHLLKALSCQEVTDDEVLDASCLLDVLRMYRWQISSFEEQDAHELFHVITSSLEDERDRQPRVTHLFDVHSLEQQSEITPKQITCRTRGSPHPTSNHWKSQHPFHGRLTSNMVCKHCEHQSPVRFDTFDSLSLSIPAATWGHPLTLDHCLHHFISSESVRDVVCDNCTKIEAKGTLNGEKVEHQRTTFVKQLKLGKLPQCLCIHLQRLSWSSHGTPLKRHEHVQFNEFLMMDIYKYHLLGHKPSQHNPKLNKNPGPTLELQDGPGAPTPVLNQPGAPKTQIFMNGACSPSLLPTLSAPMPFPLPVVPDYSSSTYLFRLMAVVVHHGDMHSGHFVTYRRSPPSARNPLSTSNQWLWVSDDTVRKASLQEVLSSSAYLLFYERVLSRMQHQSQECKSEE

| SMILES | IC50 |
| --- | --- |
| O=C(NCc1ccc(F)cc1)c1cc(-n2cnnn2)ccc1Cl | 21.3 µM |
| COc1ccc(/C=C/C(=O)Nc2c3c(nc4c2CCC4)CCCC3)cc1 | 18.5 µM |
| COc1cccc(N2C(=O)N(CC(=O)NCc3ccc(Cl)cc3)c3ccccc3S2(=O)=O)c1 | 17 µM |
| NS(=O)(=O)c1cccc(NS(=O)(=O)c2ccc(/C=C/C(=O)OCC(=O)c3ccc(Br)cc3)cc2)c1 | > 50 µM (inactive) |
| COc1ncccc1CN1CCn2c(Cn3cncn3)cnc2C1C (stereo not given) | > 50 µM (inactive) |
| O=C(CSc1nc2cc(C(F)(F)F)ccc2s1)NCC(=O)c1ccccc1 | 1.82 µM |
| O=C(O)COc1ccccc1/C=C1\CCc2c1nc1ccccc1c2C(=O)O | > 50 µM (inactive) |
| C=C1Nc2ccccc2C(=O)N1c1cccc(NC(=O)c2ccc(C)c(C)c2)c1 | > 50 µM (inactive) |
| CCS(=O)(=O)c1ccccc1C(=O)Nc1ccc2sc(C)nc2c1 | > 50 µM (inactive) |
| Cc1cccc(C)c1NC(=O)Cn1c(=O)n(CCCCC(=O)NCc2ccc3c(c2)OCO3)c(=O)c2ccccc21 | 1.5 µM |
| Cc1ccc(NC(=O)c2cnc3c(c2)c(=O)n(C)c(=O)n3C)cc1 | 1.71 µM |
| CO/C=C/C(=O)c1cc2cnc3c(=N)cc(NC(C)=O)c([nH]1)c23 | > 50 µM (inactive) |
| COCCn1c(=O)[nH]c2cc(C(=O)NCCNc3ccc([N+](=O)[O-])cc3C#N)ccc2c1=O | 2.35 µM |
| CCOc1ccccc1NC(=O)Cn1c(=O)n(CCCC(=O)NCc2ccc(C)cc2)c(=O)c2sccc21 | 2.53 µM |
| Cc1sc(NC(=O)CNc2ccccc2)nc1-c1ccc2c(c1)CCN2C(=O)C(C)C | > 50 µM (inactive) |
| CCC(=O)Nc1cccnc1-c1ccc(C(=O)Nc2cccc(OC)c2)cc1 | > 50 µM (inactive) |
| Cn1c(=O)sc2cc(NC(=O)c3ccc(Br)cc3)ccc21 | 2.21 µM |
| COc1cc(Cn2cnc3c([nH]c4ccc(Br)cc43)c2=O)cc(OC)c1 | 2.67 µM |
| Cc1c(C(=O)NCc2cccc(Br)c2)oc2c1-c1[nH]ncc1CC2 | > 50 µM (inactive) |
| CC(=O)N1CCc2cc(S(=O)(=O)NCc3ccc(C)cc3)ccc21 | > 50 µM (inactive) |
| O=C(Nc1ccc2c(c1)OCCO2)c1cc(CN2CCOCC2)on1 | > 50 µM (inactive) |
| COc1ccc(-c2cc3nc([C@@H](C)NC(=O)c4ccc5c(c4)OCO5)nn3cn2)cc1 | > 50 µM (inactive) |
| O=C(CN1CCCc2ccccc21)Nc1ccc(N2CCOCC2)cc1 | > 50 µM (inactive) |
| Cc1ccc(CNC(=O)c2ccc(N3C(=O)[C@@H]4Cc5ccccc5CN4C3=O)cc2)cc1 | 23.6 µM |

| SMILES | IC50 |
| --- | --- |
| O=C(CC1C(=O)N(Cc2cccnc2)c2nc3ccccc3n21)Nc1cccc2ccccc12 (stereo not given) | > 50 µM (inactive) |
| COc1cccc2cccc(O)c12 | > 50 µM (inactive) |
| CCC(C)(C)C1CCC2(CC1)N=C(N)Nc1nc3ccccc3n12 (stereo not given) | 28.6 µM |
| CCOc1cc(C2C3=C(CC(C)(C)CC3=O)Nc3onc(C)c32)ccc1O (stereo not given) | 37.3 µM |
| Cc1cc(Cl)ccc1Nc1nc(Nc2cccc(F)c2)nc2nccnc12 | > 50 µM (inactive) |
| COc1ccc(C2SCC(=O)Nc3c2c(=O)[nH]n3C2CCCCCC2)cc1 (stereo not given) | 23.8 µM |
| Cc1cccc(CNC(=O)c2ccc(-c3nnc(-c4cccc(C)c4)o3)cc2)c1 | 5.57 µM |
| O=C(Cc1c[nH]c2ccccc12)Nc1nc2ccccc2s1 | > 50 µM (inactive) |
| COC1=C(C2=C(OC)C(=O)c3cc4c(c(O)c3C2=O)C(=O)OC(C)C4)C(=O)c2c(cc3c(c2O)C(=O)OC(C)C3)C1=O (stereo not given) | > 50 µM (inactive) |
| O=C(COc1cc([N+](=O)[O-])cc2cccnc12)NCCC1=CCCCC1 | 28.3 µM |
| COc1ccc(CCNC(=O)c2ccc3ccccc3c2)cc1OC | > 50 µM (inactive) |
| O=C(COc1ccc(Cl)cc1Cl)Nc1ccccc1-c1nc2ccccc2[nH]1 | 1.61 µM |
| Cc1cc(NCC2CC2)n2nc(Nc3cc(Cl)ccc3C)nc2n1 | 23.6 µM |
| O=C(c1cc2ccccc2o1)N1CC=C(c2ccccc2)CC1 | > 50 µM (inactive) |
| COc1ccc(NC(=O)C2[C@@H]3C(=O)N(C4CCCCC4)C(=O)[C@@H]3[C@H]3c4ccccc4C=CN23)cc1 (stereo not given in full) | > 50 µM (inactive) |
| COCCNC(=O)c1ccnn1-c1ccc2ccc(-c3cccnc3)cn12 | > 50 µM (inactive) |
| Cc1nnc(-c2nnc(NCc3ccc(Cl)cc3)c3ccccc23)o1 | > 50 µM (inactive) |
| Clc1cccc(N2CCN(c3ncnc4nc[nH]c34)CC2)c1 | 24.6 µM |
| Cn1c(=O)c2c(nc3n(-c4ccccc4F)c(-c4ccccc4)cn23)n(C)c1=O | > 50 µM (inactive) |
| COc1ccc(COc2ccc3c(C)c(CC(=O)N4CC[C@@]5(O)CCCC[C@H]5C4)c(=O)oc3c2)cc1 | 2.22 µM |
| CCc1ccc(NC(=O)Cc2nnc(-c3ccc4ncccc4c3)o2)cc1 | 28.4 µM |
| O=C(COc1ccc(Cl)cc1)NCc1nnc(SCC(=O)NCc2ccc3c(c2)OCO3)o1 | 25.8 µM |
| Cc1ccc(NC(=O)c2c3c(nc4ccccc24)CCCCC3)c(C)c1 | > 50 µM (inactive) |
| CC(=O)c1ccc(NC(=O)C[n+]2cc(-c3ccc(Cl)cc3)n3c2CCC3)cc1 | > 50 µM (inactive) |

| SMILES | IC50 |
| --- | --- |
| CC(C)C1Cc2c(sc3nc(SCC(=O)Nc4cccc5ccccc45)nc(N)c23)CO1 (stereo not given) | > 50 µM (inactive) |
| NC(=O)c1ccc(NC(=O)Cc2cc(-c3ccc(Cl)cc3)on2)cc1 | > 50 µM (inactive) |
| Cc1cccc(-c2nc3n(CC(=O)Nc4ccc(Cl)cc4)c(C)cc(=O)n3n2)c1 | 0.179 µM |
| CS(=O)(=O)N1CCCN(c2nc3cc(Cl)ccc3n3cccc23)CC1 | > 50 µM (inactive) |
| COc1ccccc1-c1nc2c3c(C)c(C)n(Cc4cccnc4)c3ncn2n1 | > 50 µM (inactive) |
| Cc1ccccc1N1C(=O)/C(=C\c2cccn2C)c2ccccc2C1=O | > 50 µM (inactive) |
| CCCNC(=O)c1ccn(-c2ccc3ccc(-c4cnn(C)c4)cn23)n1 | > 50 µM (inactive) |
| CC(C)=CCC/C(C)=C/C[C@]1(O)C(=O)c2cc(O)cc(O)c2C(=O)[C@@]1(Cl)CC=C(C)C | > 50 µM (inactive) |
| COc1cc2cc3c(c(O)c2c(O)c1-c1c(OC)cc2cc4c(c(O)c2c1O)C(=O)OC1CC(C)OC41)C(=O)OC1CC(C)OC31 (stereo not given) | > 50 µM (inactive) |
| Cc1cc(N2CCOCC2)nc2ccc(NC(=O)CCC(=O)Nc3ccc(F)cc3)cc12 | 10.3 µM |
| CC(=O)N1CCc2cc(CNC(=O)Nc3cc(C)ccc3C)ccc21 | > 50 µM (inactive) |
| CCn1ccc2c(cc(C(=O)Nc3ccccc3F)n2C)c1=O | > 50 µM (inactive) |
| O=[N+]([O-])c1cccc(-c2noc(CSc3ccccc3)n2)c1 | 46.6 µM |
| Cc1cc(C)n(-c2ccc(C(=O)Nc3cccc(S(=O)(=O)N4CCCC4)c3)cc2)n1 | 9.63 µM |
| O=C(OCc1ccc(Br)cc1)c1ccc2ccccc2n1 | > 50 µM (inactive) |
| Cn1nccc1C(=O)N1CCCCC1c1ncc(Cc2ccc(Cl)cc2)o1 (stereo not given) | > 50 µM (inactive) |
| CC(C)NS(=O)(=O)c1ccc(CCC(=O)Nc2ccc3c(c2)OCCO3)cc1 | 37.8 µM |
| COc1cc2c(=O)n(CCC(=O)NCc3ccco3)c(=O)n(CC(=O)Nc3c(C)cccc3C)c2cc1OC | > 50 µM (inactive) |
| CC1CCc2c(sc3nc(CC#N)[nH]c(=O)c23)C1 (stereo not given) | > 50 µM (inactive) |
| O=C(Nc1ccccc1Br)c1ccn(COc2ccccc2F)n1 | 14.8 µM |
| N#C/C(=C/c1sc(N2CCOCC2)nc1-c1ccccc1)c1ccccn1 | > 50 µM (inactive) |
| Cc1ccc(C(=O)Nc2nc3n(n2)C(c2ccccc2)CC(=O)N3)cc1 (stereo not given) | 24.4 µM |
